Tests used:
[1] = tested on: panel of 12 human tumor cell lines; assay: Monolayer assay, panel of 12 human tumor cell lines; type: cell-based; conditions: for IC50 / Mean IC70: mean over panel of 12 human tumor cell lines, test range 0.0001 μM-10 μM; for % Selectivity / Rating (selectivity) / Selectivity Total (cell lines with individual IC70 < 1/3 mean IC70) / in vitro antitumor activity: panel of 12 human tumor cell lines
Procedure: Cell lines were routinely passaged once or twice weekly and maintained in culture for upto 20 passages. All cells were grown at 37° C. in a humidified atmosphere with 5% CO2 in RPMI 1640 medium supplemented with 10% (v/v) fetal calf serum (FCS) and 0.1 mg/mL gentamicin (medium and all other components from PAA, Cölbe, Germany). Authenticity of all cell lines was proven at the DSMZ by STR (short tandem repeat) analysis, a PCR based DNA-fingerprinting methodology.
Stock solutions of the test compounds (330 μg/mL in DMSO) were prepared and stored in small aliquots (200 μL) at −20° C. An aliquot of the stock solution was thawed on the day of use and stored at room temperature prior to and during dosing. The subsequent dilutions were done with complete RPMI 1640 cell culture medium as follows: the stock solution was diluted 1:22 followed by serial dilutions finally resulting in a (compared to the test concentration) 15-fold higher concentration. For the final dilution step (1:15), 10 μL/well of the respective compound solution was directly added to 140 μL/well culture medium. Test compounds were tested at […]. Each concentration was evaluated in triplicate.
A modified propidium iodide assay was used to assess the effect of the test compounds on the growth of the human tumor cell lines and was designed as in reference, Anti-cancer Drugs, 6, 522-532, (1995), the disclosure of which is incorporated by reference for the teaching of the assay.
Cells were plated in 96-well flat-bottom microtiter plates at a cell density of 4,000 to 10,000 cells/well. After a 24 h recovery period to allow the cells to resume exponential growth, the test compounds were applied at five concentrations in log increments in triplicates in two independent runs. After 4 days of treatment, the medium with/without test compounds including all floating (i.e., dead) cells was aspirated and replaced by 200 μL of an aqueous propidium iodide (PI) solution (7 μg/mL). To measure the viable cell number, the remaining adherent cells were killed and permeabilized by repeated freezing and thawing and PI fluorescence was measured using the Cytofluor 4000 microplate reader (excitation λ=530 nm, emission λ=620 nm), which was a measure for the number of cells which survived treatment. Pharmacological effects on cell proliferation and survival were expressed as Test/Control×100 (% T/C) values, with T and C representing the fluorescence read-outs for wells with and without test compound, respectively, i.e. T/C represents the ratio of viable cell numbers following incubation of cell line with/without test compound. Based on the T/C values IC50 and IC70 values, being the drug concentration necessary to inhibit cell growth by 50% (T/C=50%) and 70% (T/C=30%), respectively, were determined by plotting compound concentration versus cell viability (T/C). IC-values were calculated based on the principle of linear two-point curve fit.

MDA 231 = assay: Monolayer assay (modified propidium iodide), MDA 231; type: cell-based, human; conditions: MDA 231, Mammary; 4 days of treatment
Source text: (§1) Oncotest GmbH, Germany's proprietary tumor cell line panel comprises 40 cell lines. These cell lines were derived from 15 different tumor histotypes, each represented by 1 to 6 different cell lines. Cell lines were established from cancer of the bladder (3), colon (4), head and neck (1), lung (6), breast (3), pancreas (3), prostate (4), ovary (2), kidney (3), liver (1), stomach (1) and the uteri body (1), as well as from melanoma (3), sarcoma (2) and pleuramesothelioma (3). Out of these 40 cell lines, 24 cell lines were established at Oncotest, from patient-derived tumor xenografts. The other 16 cell lines were either provided by the NCI (Bethesda; MD, USA) or were purchased from ATCC (Rockville, Md., USA) or DSMZ (Braunschweig, Germany).
(§2) Cell lines were routinely passaged once or twice weekly and maintained in culture for upto 20 passages. All cells were grown at 37° C. in a humidified atmosphere with 5% CO2 in RPMI 1640 medium supplemented with 10% (v/v) fetal calf serum (FCS) and 0.1 mg/mL gentamicin (medium and all other components from PAA, Cölbe, Germany). […]
(§3) Stock solutions of the test compounds (330 μg/mL in DMSO) were prepared and stored in small aliquots (200 μL) at −20° C. […] Each concentration was evaluated in triplicate. […]
(§4) Cells were plated in 96-well flat-bottom microtiter plates at a cell density of 4,000 to 10,000 cells/well. […] To measure the viable cell number, the remaining adherent cells were killed and permeabilized by repeated freezing and thawing and PI fluorescence was measured using the Cytofluor 4000 microplate reader (excitation λ=530 nm, emission λ=620 nm), which was a measure for the number of cells which survived treatment. Pharmacological effects on cell proliferation and survival were expressed as Test/Control×100 (% T/C) values, with T and C representing the fluorescence read-outs for wells with and without test compound, respectively, i.e. T/C represents the ratio of viable cell numbers following incubation of cell line with/without test compound. […] IC-values were calculated based on the principle of linear two-point curve fit. […]

LXF 526L = assay: Monolayer assay (modified propidium iodide), LXF 526L; type: cell-based, human; conditions: Lung, 4 days of treatment
Source text: as §1, §2, §3, §4

CXF 269L = assay: Monolayer assay (modified propidium iodide), CXF 269L; type: cell-based, human; conditions: Colon, 4 days of treatment
Source text: as §1, §2, §3, §4

T 24 = assay: Monolayer assay (modified propidium iodide), T 24; type: cell-based, human; conditions: T 24, Bladder; 4 days of treatment
Source text: as §1, §2, §3, §4

Compound: C/C=C/C(O)C(C)/C=C/C(=NOCC(=O)O)C(C)C(O)C(C)C1OC(=O)/C(OC)=C/C(C)=C/C(C)C(O)C(CC)C(O)C(C)C/C(C)=C/C=C/C1OC (stereo in doubt) [Example 10, ((Z)-((6E,10E)-2-((4E,6E,14E,16Z)-11-Ethyl-10,12-dihydroxy-3,17-dimethoxy-7,9,13,15-tetramethyl-18-oxooxacyclooctadeca-4,6,14,16-tetraen-2-yl)-3,9-dihydroxy-4,8-dimethyldodeca-6,10-dien-5-ylidene)aminooxy)acetic acid]
- IC50 [1]: 0.514 µM
- Mean IC70 [1]: 1.258 µM
- % Selectivity [1]: 8%
- Rating (selectivity) [1]: (+) (+ (4% > selective >= 12%))
- Selectivity Total (cell lines with individual IC70 < 1/3 mean IC70) [1]: 1/12
- in vitro antitumor activity [1]: showed in vitro antitumor activity

Compound: C/C=C/C(O)C(C)/C=C/C(=NOCC(=O)N1CCN(C)CC1)C(C)C(O)C(C)C1OC(=O)/C(OC)=C/C(C)=C/C(C)C(O)C(CC)C(O)C(C)C/C(C)=C/C=C/C1OC (stereo in doubt) [Example 11, (3Z,5E,13E,15E)-18-((5Z,6E,10E)-3,9-Dihydroxy-4,8-dimethyl-5-(2-(4-methylpiperazin-1-yl)-2-oxoethoxyimino)dodeca-6,10-dien-2-yl)-9-ethyl-8,10-dihydroxy-3,17-dimethoxy-5,7,11,13-tetramethyloxacyclooctadeca-3,5,13,15-tetraen-2-one]
- IC50 [1]: 0.006 µM
- Mean IC70 [1]: 0.020 µM
- % Selectivity [1]: 25%
- Rating (selectivity) [1]: (+ + +)
- Selectivity Total (cell lines with individual IC70 < 1/3 mean IC70) [1]: 3/12
- in vitro antitumor activity [1]: showed in vitro antitumor activity

Compound: C/C=C/C(O)C(C)/C=C/C(=NOCC(=O)NCCO)C(C)C(O)C(C)C1OC(=O)/C(OC)=C/C(C)=C/C(C)C(O)C(CC)C(O)C(C)C/C(C)=C/C=C/C1OC (stereo in doubt) [Example 12, 2-((Z)-((6E,10E)-2-((4E,6E,14E,16Z)-11-Ethyl-10,12-dihydroxy-3,17-dimethoxy-7,9,13,15-tetramethyl-18-oxooxacyclooctadeca-4,6,14,16-tetraen-2-yl)-3,9-dihydroxy-4,8-dimethyldodeca-6,10-dien-5-ylidene)aminooxy)-N-(2-hydroxyethyl)acetamide]
- IC50 [1]: 0.002 µM
- Mean IC70 [1]: 0.006 µM
- % Selectivity [1]: 42%
- Rating (selectivity) [1]: (+ + +)
- Selectivity Total (cell lines with individual IC70 < 1/3 mean IC70) [1]: 5/12
- in vitro antitumor activity [1]: showed in vitro antitumor activity

Compound: C/C=C/C(O)C(C)/C=C/C(=NOCC(=O)N1CCCCC1)C(C)C(O)C(C)C1OC(=O)/C(OC)=C/C(C)=C/C(C)C(O)C(CC)C(O)C(C)C/C(C)=C/C=C/C1OC (stereo in doubt) [Example 13, (3Z,5E,13E,15E)-18-((5Z,6E,10E)-3,9-Dihydroxy-4,8-dimethyl-5-(2-oxo-2-(piperidin-1-yl)ethoxyimino)dodeca-6,10-dien-2-yl)-9-ethyl-8,10-dihydroxy-3,17-dimethoxy-5,7,11,13-tetramethyloxacyclooctadeca-3,5,13,15-tetraen-2-one]
- IC50 [1]: 0.03 µM
- Mean IC70 [1]: 0.097 µM
- % Selectivity [1]: 17%
- Rating (selectivity) [1]: (+ +)
- Selectivity Total (cell lines with individual IC70 < 1/3 mean IC70) [1]: 2/12
- in vitro antitumor activity [1]: showed in vitro antitumor activity

Compound: C/C=C/C(O)C(C)/C=C/C(=NOCC(=O)N1CCC(N2CCCCC2)CC1)C(C)C(O)C(C)C1OC(=O)/C(OC)=C/C(C)=C/C(C)C(O)C(CC)C(O)C(C)C/C(C)=C/C=C/C1OC (stereo in doubt) [Example 14, (3Z,5E,13E,15E)-18-((5Z,6E,10E)-5-(2-(1,4′-Bipiperidin-1′-yl)-2-oxoethoxyimino)-3,9-dihydroxy-4,8-dimethyldodeca-6,10-dien-2-yl)-9-ethyl-8,10-dihydroxy-3,17-dimethoxy-5,7,11,13-tetramethyloxacyclooctadeca-3,5,13,15-tetraen-2-one]
- IC50 [1]: 0.358 µM
- Mean IC70 [1]: 0.762 µM
- % Selectivity [1]: 8%
- Rating (selectivity) [1]: (+) (+ (4% > selective >= 12%))
- Selectivity Total (cell lines with individual IC70 < 1/3 mean IC70) [1]: 1/12
- in vitro antitumor activity [1]: showed in vitro antitumor activity

Compound: C/C=C/C(O)C(C)/C=C/C(=NOCC(=O)NCc1ccc(F)cc1)C(C)C(O)C(C)C1OC(=O)/C(OC)=C/C(C)=C/C(C)C(O)C(CC)C(O)C(C)C/C(C)=C/C=C/C1OC (stereo in doubt) [Example 15, 2-((Z)-((6E,10E)-2-((4E,6E,14E,16Z)-11 Ethyl-10,12-dihydroxy-3,17-dimethoxy-7,9,13,15-tetramethyl-18-oxooxacyclooctadeca-4,6,14,16-tetraen-2-yl)-3,9-dihydroxy-4,8-dimethyldodeca-6,10-dien-5-ylidene)aminooxy)-N-(4-fluorobenzyl)acetamide]
- IC50 [1]: 0.001 µM
- Mean IC70 [1]: 0.003 µM
- % Selectivity [1]: 50%
- Rating (selectivity) [1]: (+++) (+++ (% selective > 20%))
- Selectivity Total (cell lines with individual IC70 < 1/3 mean IC70) [1]: 6/12
- in vitro antitumor activity [1]: showed in vitro antitumor activity

Compound: C/C=C/C(O)C(C)/C=C/C(=N\OC)C(C)C(O)C(C)C1OC(=O)/C(OC)=C/C(C)=C/C(C)C(O)C(CC)C(O)C(C)C/C(C)=C/C=C/C1OC (stereo not shown) [Example 8, (3Z,5E,13E,15E)-18-((5E,6E,10E)-3,9-Dihydroxy-5-(methoxyimino)-4,8-dimethyldodeca-6,10-dien-2-yl)-9-ethyl-8,10-dihydroxy-3,17-dimethoxy-5,7,11,13-tetramethyloxacycloocta deca-3,5,13,15-tetraen-2-one]
- IC70 (MDA 231): ≤ 0.3 ng/mL
- IC70 (LXF 526L): ≤ 0.3 ng/mL
- IC70 (CXF 269L): ≤ 0.3 ng/mL
- IC70 (T 24): ≤ 0.3 ng/mL
